Data: patent publication US12590953B2, “Methods for screening cereblon modifying compounds” (CELGENE CORPORATION, priority 2018, dated 2026)
Peptide text beside a SMILES is read from it. * marks the point of attachment. Cbz = O=C(OCc1ccccc1)*

Columns and labels:
SALL4 = target: T1, SALL4 (Homo sapiens, UniProt Q96SW2+Q9UJQ4); assay: SALL4 protein level in human iPS cells, immunoblot; format: cell-based; settings: human iPS cells; 1 μM MLN4924 or 10 μM MG132 for 6 hours with thalidomide
T1 construct: host or cells: human iPS cells (CRBN wild-type and CRBN knock-out)
Procedure: Immunoblot analysis of whole cell lysates of CRBN wild-type (WT) and CRBN knock-out (−/−) human iPS cells was performed. Cells were treated with DMSO vehicle control (−) or thalidomide (Thal) at indicated concentrations for 16 hours (n=4, biological replicates).
Immunoblot analysis of whole cell lysates of human iPS cells treated with DMSO (−) or Thal (+) in the presence or absence of 1 μM MLN4924 or 10 μM MG132 for 6 hours were performed (n=2, biological replicates).
Human iPS cell lines ACS-1019 and ACS-1011 (derived from healthy donors) were obtained from ATCC. The hiPSCs were maintained in mTESR-1 medium (Stem Cell Technologies) in cell culture plates coated with a thin layer of Matrigel (BD Biosciences) incubated at 37° C. in a humidified 5% CO2 incubator according to the manufacturer's instruction. Cells were split through mechanic passaging with a glass pipet and enzymatically digestion with Dispase or Accutase every 2 to 3 days.
Human iPSCs, ACS-1019 was transduced with lentiviral vectors expressing CRISPR-Cas9 and small guide RNA targeting cereblon for 4 days. The resulting colonies were amplified and screened for cereblon knockout by immunoblot analysis with anti-CRBN65 antibody (Celgene).

ZFP91 = target: T2, ZFP91 (Homo sapiens, UniProt Q96JP5+Q96SW2); assay: Degradation of ZFP91 in Lenti-x 293 cells (control substrate); format: cell-based; settings: Lenti-x 293 cell lines expressing cereblon
T2 construct: endogenous in cells; host or cells: Lenti-x 293 cell line with CRISPR-cas9 cereblon knock-out, transfected with GST-cereblon

[1] = test system: SALL4 binding to cereblon; format: cell-based, human
Procedure: Binding of full length SALL4 to cereblon in cells was then tested by co-immunoprecipitation (see FIG. 3). HA-tagged WT, G416A, or G600A SALL4 was immunoprecipitated from cells, and the level of co-purifying cereblon was assessed by western blot. Briefly, a Lenti-x 293 cell line with a CRISPR-cas9 knock-out of cereblon and stable expression of HA-tagged SALL4 or SALL4 mutants was transfected with either GST-cereblon or empty vector. […] The amount of co-purifying GST-cereblon was then assessed by western blot.

[2] = target: T3, endogenous SALL4 in NCCIT, NETRA-2 c1.D1 and AN3-CA cancer cell lines (Homo sapiens, UniProt Q96SW2+Q9UJQ4); assay: Degradation of endogenous SALL4 in cancer cell lines, western blot; format: cell-based; settings: 16 hour treatment; anti-SALL4 western blot
T3 construct: endogenous in cells; host or cells: NCCIT, NETRA-2 c1.D1 and AN3-CA cancer cell lines

T1 sequence (Q9UJQ4 whole entry): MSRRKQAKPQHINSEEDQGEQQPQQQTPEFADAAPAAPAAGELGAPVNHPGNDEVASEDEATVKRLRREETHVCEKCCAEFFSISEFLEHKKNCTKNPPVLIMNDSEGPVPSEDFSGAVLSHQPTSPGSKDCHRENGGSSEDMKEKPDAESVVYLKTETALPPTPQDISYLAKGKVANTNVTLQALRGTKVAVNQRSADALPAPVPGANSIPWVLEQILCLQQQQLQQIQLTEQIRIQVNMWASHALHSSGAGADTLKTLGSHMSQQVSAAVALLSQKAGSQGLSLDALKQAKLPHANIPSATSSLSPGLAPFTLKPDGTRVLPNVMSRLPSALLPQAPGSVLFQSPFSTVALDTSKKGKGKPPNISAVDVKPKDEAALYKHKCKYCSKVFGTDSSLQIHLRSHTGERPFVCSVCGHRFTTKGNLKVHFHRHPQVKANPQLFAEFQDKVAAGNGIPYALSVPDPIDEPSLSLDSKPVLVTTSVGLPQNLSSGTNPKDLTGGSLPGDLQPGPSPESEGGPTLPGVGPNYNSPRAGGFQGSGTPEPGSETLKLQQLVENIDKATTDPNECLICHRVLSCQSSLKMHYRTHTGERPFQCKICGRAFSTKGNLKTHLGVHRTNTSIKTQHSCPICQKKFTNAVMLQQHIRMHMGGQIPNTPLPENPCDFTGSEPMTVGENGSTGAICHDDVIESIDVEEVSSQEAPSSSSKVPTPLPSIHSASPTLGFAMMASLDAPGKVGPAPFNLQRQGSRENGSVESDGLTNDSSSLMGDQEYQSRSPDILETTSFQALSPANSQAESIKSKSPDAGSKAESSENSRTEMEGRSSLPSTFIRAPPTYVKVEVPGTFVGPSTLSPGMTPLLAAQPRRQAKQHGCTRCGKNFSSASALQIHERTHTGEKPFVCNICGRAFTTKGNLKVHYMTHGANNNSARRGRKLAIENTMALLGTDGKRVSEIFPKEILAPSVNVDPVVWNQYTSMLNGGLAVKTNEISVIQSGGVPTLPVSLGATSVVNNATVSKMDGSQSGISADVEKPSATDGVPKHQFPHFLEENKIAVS
T1 sequence (Q96SW2 whole entry): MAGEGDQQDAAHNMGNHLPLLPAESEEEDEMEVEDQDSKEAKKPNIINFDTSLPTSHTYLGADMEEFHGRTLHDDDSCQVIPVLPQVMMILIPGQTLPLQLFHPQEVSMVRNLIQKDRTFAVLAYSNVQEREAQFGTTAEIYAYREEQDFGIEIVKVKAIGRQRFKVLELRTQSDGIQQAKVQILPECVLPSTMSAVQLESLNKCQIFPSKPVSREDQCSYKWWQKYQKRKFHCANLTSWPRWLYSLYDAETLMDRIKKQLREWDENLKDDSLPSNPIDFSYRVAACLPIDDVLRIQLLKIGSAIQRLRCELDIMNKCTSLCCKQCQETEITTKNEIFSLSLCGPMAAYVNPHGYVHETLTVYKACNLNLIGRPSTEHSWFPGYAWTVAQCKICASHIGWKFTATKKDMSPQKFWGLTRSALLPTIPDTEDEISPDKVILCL
T1 sequence (Q16531 whole entry partner): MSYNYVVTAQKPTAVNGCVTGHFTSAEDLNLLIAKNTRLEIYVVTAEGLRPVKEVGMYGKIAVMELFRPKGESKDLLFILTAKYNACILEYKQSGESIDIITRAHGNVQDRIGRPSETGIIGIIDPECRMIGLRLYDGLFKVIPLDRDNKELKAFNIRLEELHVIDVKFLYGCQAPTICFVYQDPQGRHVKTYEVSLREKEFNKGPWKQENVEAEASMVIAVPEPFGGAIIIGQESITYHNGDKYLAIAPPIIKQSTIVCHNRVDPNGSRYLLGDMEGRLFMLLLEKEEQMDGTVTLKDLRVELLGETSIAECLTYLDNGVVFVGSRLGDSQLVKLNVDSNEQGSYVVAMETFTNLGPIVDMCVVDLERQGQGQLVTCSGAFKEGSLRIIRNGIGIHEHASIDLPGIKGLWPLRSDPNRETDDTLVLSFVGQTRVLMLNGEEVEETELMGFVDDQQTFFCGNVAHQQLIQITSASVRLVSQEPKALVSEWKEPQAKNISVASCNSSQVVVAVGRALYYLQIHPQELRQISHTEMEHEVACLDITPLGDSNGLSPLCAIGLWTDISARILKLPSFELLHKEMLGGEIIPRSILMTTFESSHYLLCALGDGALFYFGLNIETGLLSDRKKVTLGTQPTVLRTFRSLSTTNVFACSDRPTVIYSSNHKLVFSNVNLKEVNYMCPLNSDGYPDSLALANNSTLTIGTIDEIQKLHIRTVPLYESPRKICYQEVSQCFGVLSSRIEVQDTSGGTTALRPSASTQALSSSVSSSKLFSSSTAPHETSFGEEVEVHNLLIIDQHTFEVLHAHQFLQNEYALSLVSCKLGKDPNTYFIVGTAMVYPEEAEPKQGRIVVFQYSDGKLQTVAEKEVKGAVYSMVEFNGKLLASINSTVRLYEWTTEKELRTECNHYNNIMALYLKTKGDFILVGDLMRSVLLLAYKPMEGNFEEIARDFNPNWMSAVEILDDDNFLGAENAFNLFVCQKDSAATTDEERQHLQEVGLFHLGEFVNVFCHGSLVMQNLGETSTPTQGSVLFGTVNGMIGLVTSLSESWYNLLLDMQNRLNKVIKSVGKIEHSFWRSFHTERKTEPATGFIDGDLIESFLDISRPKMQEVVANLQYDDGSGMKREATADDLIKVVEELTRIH
T2 sequence (Q96JP5 2-570 limits assumed): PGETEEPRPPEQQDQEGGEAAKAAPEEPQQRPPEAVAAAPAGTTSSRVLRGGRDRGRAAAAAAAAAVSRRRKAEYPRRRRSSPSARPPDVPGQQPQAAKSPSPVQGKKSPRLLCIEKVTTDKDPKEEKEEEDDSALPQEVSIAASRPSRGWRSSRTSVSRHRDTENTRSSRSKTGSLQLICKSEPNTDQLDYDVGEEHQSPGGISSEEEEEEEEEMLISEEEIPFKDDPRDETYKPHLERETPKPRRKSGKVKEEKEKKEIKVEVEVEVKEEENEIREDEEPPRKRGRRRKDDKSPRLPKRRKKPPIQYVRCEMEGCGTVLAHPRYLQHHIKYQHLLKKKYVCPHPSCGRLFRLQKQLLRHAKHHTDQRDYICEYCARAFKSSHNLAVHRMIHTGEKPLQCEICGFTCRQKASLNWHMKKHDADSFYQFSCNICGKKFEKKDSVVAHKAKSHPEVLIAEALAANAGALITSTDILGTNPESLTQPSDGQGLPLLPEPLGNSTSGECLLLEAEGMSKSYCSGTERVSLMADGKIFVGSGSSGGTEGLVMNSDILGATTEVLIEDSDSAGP
T2 sequence (Q96SW2 whole entry): as the sequence (Q96SW2 whole entry) above
T2 sequence (Q16531 whole entry partner): as the sequence (Q16531 whole entry partner) above

Compound	Effect on thalidomide-induced reduction in SALL4 protein levels (SALL4)	ZFP91 degradation (ZFP91)	Binding of G416A SALL4 to cereblon ([1]; HA-tagged G416A SALL4, anti-HA pull-down)	Binding of G600A SALL4 to cereblon ([1]; HA-tagged G600A SALL4, anti-HA pull-down)	Binding of WT SALL4 to cereblon (co-purifying GST-cereblon, western blot) ([1]; HA-tagged WT SALL4, anti-HA pull-down)	Degradation of endogenous SALL4 [2]
CC(C)C[C@@H](C=O)NC(=O)[C@H](CC(C)C)NC(=O)[C@H](CC(C)C)NC(=O)OCc1ccccc1 [MG132] (Cbz-Leu-Leu-Leu-aldehyde)	prevented					
NS(=O)(=O)OC[C@@H]1C[C@@H](n2ccc3c(N[C@H]4CCc5ccccc54)ncnc32)C[C@@H]1O [MLN4924]	prevented					
Nc1cccc2c1C(=O)N(C1CCC(=O)NC1=O)C2=O (stereo not shown) [pomalidomide]		exhibited compound-dependent degradation in all cell lines expressing cereblon	disrupted the binding significantly	strong, compound-dependent binding to cereblon	strong, compound-dependent binding to cereblon	Significant compound-dependent degradation of endogenous SALL4 was observed
